Assay results from patent US20260293937A1, “SHRIMP FEED AND METHODS OF USE THEREOF” (Organicin Scientific, Inc., priority 2023, published 2026).
No end group written: not given here.

Legend:
[1] = test system: brine shrimp (Artemia salina); experiment: Brine shrimp toxicity of EDTA (Example 5); format: in vivo; conditions: for mortality at 20000 µM: Artemia salina, 20 mM; for mortality: concentrations less than or equal to 400 µM
Text: This Example describes the toxicity and efficacy of EDTA in reducing pathogenesis and promoting survival of shrimp. Brine shrimp (Artemia salina) were utilized as a model organism to simulate potential impacts on Pacific whiteleg shrimp (Penaeus vannamei).
Artemia salina (a species of brine shrimp) were used. Additional materials included: ethylenediaminetetraacetic acid (EDTA; 99% pure) powder (USB Corporation Instant Ocean (Instant Ocean Spectrum Brands. Blacksburg, VA); and Artemia salina eggs were used.
Artemia salina eggs were hatched in artificial seawater (Instant Ocean) under controlled conditions. Newly hatched brine shrimp were then exposed to varying concentrations of EDTA in experimental tanks. A separate set of tanks was used for each concentration of EDTA (20 mM, 400 uM, 200 uM, and 100 uM).
Control tanks treated with saline water were prepared to observe the natural behavior and survival rate of Artemia salina without EDTA exposure.
Brine shrimp were divided into different tanks for exposure to varying concentrations (20 mM, 400 uM, 200 uM, and 100 uM) of EDTA.
Mortality and behavior of brine shrimp were recorded at 24 and 48 hours post-exposure.

Escherichia coli (EC-18) = experiment: Zone of inhibition on agar plates (Example 4); format: cell-based; conditions: for concentration with no killing / concentration with reduced growth / killing down to a concentration: pre-purification
Procedure: (§1) ImmuCell Nisin A (96% pure) suspended in citric acid buffer (pH-3.4) at 4.86 mg/mL (ImmuCell, Portland, ME); Nisin A (Nissen®-A; 10% pure powder, Siveele, Breda, Netherlands): Nisin Z (26.7% pure) powder (Handry, Brussels, Belgium): Citric Acid Buffer (CAB) pH=3.4; Distilled H2O (dH2O); Instant Ocean (Instant Ocean Spectrum Brands, Blacksburg. VA): Artemia salina eggs: 60 mm Petri Dishes; Laboratory control strains of Staphylococcus aureus and Escherichia coli (“SA1” and “EC-18,” respectively): 15 mL Falcon Tubes; and Slide-A-Lyzer Dialysis Flask, 2K MWCO, 250 mL (Thermo Scientific, Rockford, IL) were used.
(§2) Nisin variants (Nisin A, Nisin Z, and ImmuCell Nisin A) were dissolved in either citric acid buffer (CAB, pH 3.4) for Nisin A or dH2O for Nisin Z to make a stock solution of 4.86 mg/mL. Serial dilutions were performed to achieve the different concentrations (4.86 mg/mL to 0.005 mg/mL) for the experiments.
(§3) Parallel to the toxicity tests, antibacterial efficacy was evaluated by applying Nisin solutions (before and after basic purification via Slide-A-Lyzer Dialysis) onto agar plates pre-inoculated with laboratory control strains Staphylococcus aureus (“SA1”) and Escherichia coli (“EC-18”). Zones of inhibition were measured 24 hours post-incubation at 37° C.
(§4) Mortality and behavior of the brine shrimp were recorded at 24 and 48 hours post-exposure. For the antimicrobial tests, the diameter of inhibition zones on agar plates containing the laboratory control strains were measured and recorded.

[2] = test system: Staphylococcus aureus (SA1); experiment: Zone of inhibition on agar plates (Example 4); format: cell-based; conditions: for concentration with no killing / concentration with reduced growth / killing down to a concentration: pre-purification
Procedure: as §1, §2, §3, §4

E. coli (ECX) = experiment: Zone of inhibition, Nisin with and without EDTA (Example 6); format: cell-based, Escherichia coli; conditions: 4.05 mg/mL Nisin in CAB, with or without 20.8 mM EDTA
Procedure: (§5) ImmuCell Nisin A (96% pure) suspended in citric acid buffer (pH 3.4) at 4.05 mg/mL (ImmuCell, Portland, ME); Nisin A (Nissen®-A; 10% pure powder, Siveele, Breda, Netherlands): Citric Acid Buffer (CAB) pH=3.4; 60 mm Petri Dishes; Laboratory control strain of Staphylococcus aureus (“SAI”), experimental strains of Escherichia coli (“ECY” and “ECX”) and Vibrio parahaemolyticus (“VPY”, and “VPX”); and ethylenediaminetetraacetic acid (EDTA: 99% pure) powder (USB Corporation) were used.
(§6) On the day before the experiment, stocks of Vibrio parahaemolyticus, Staphylococcus aureus, and Escherichia coli were prepared. An inoculation loop was sterilized, cooled, and used to extract cells, which were then cultured in nutrient broth at 37° C. for 16 to 20 hours. The bacterial density was adjusted to approximately 10^7 to 10^8 CFU/mL. Subsequently, 100 μL of each culture, normalized to about 10^6 to 10^7 CFU/mL, was evenly spread on agar plates using sterile glass beads, creating a uniform bacterial lawn. Four identical lawns were prepared for each bacterial type to ensure replicative testing of treatments.
(§7) Two forms of Nisin, 96% pure Nisin (Immucell) and 10% pure Niseen (Sivele), were prepared in citric acid buffer (CAB) at a concentration of 4.05 mg/mL. To assess synergistic effects, EDTA was added to each Nisin solution to achieve a final concentration of 20.8 mM.
(§8) […] of each treatment formulation were spotted onto the prepared bacterial lawns. These plates were then incubated at 37° C. for 16 to 20 hours to allow for bacterial growth and ZOI formation.
(§9) The ZOI were observed and measured in millimeters to measure the degree of bacterial growth suppression.

E. coli (ECY) = experiment: as above; format: cell-based, Escherichia coli; conditions: 4.05 mg/mL Nisin in CAB, with or without 20.8 mM EDTA
Procedure: as §5, §6, §7, §8, §9

[3] = test system: Staphylococcus aureus (SA1); experiment: as above; format: cell-based; conditions: 4.05 mg/mL Nisin in CAB, with or without 20.8 mM EDTA
Procedure: as §5, §6, §7, §8, §9

[4] = test system: Vibrio parahaemolyticus (VPX); experiment: as above; format: cell-based; conditions: 4.05 mg/mL Nisin in CAB, with or without 20.8 mM EDTA
Procedure: as §5, §6, §7, §8, §9

[5] = test system: Vibrio parahaemolyticus (VPY); experiment: as above; format: cell-based; conditions: 4.05 mg/mL Nisin in CAB, with or without 20.8 mM EDTA
Procedure: as §5, §6, §7, §8, §9

[6] = test system: brine shrimp (Artemia salina); experiment: Brine shrimp toxicity of Nisin formulations (Example 4); format: in vivo; conditions: for efficacy in reducing mortality in shrimp: Nisin Z (26.7% pure) compared with Nisin A (10% pure)
Procedure: This Example describes the efficacy of various Nisins: Nisin Z, Nisin A, and ImmuCell Nisin A. This experiment assessed the safety and antimicrobial efficacy of various Nisin formulations in treating Vibrio parahaemolyticus infections, a common pathogen in aquaculture environments. Brine shrimp (Artemia salina) were utilized as a model organism to simulate potential impacts on Pacific whiteleg shrimp (Penaeus vannamei).
as §2
Artemia salina eggs were hatched in artificial seawater (Instant Ocean) under controlled conditions. Newly hatched brine shrimp were then exposed to varying concentrations of each Nisin solution in experimental tanks. A separate set of tanks was used for each type of Nisin formulation.
Control tanks (treated with either CAB or saline water) were prepared to observe the natural behavior and survival rate of Artemia salina without Nisin exposure.
Brine shrimp were divided into different tanks for exposure to varying concentrations (2.43 mg/mL, 0.608 mg/mL, 0.152 mg/mL, and 0.038 mg/mL) of Nisin A, Nisin Z, and ImmuCell Nisin A.
as §4

Suspension in dH2O = format: physicochemical
Procedure: as §2

[7] = Retention by 2 kDa dialysis membrane; format: physicochemical; conditions: water sampled at 4 and 24 hours
Procedure: as §3
Next, the zones of inhibition for Nisin Z pre- and 48 hours post-2 kDa dialysis membrane purification were spotted onto a lawn of a control strain (SA1). […] Water samples were taken to test if any drug was lost at the 4 hour mark and again at the 24 hour mark. […] To remove additional contaminants, additional filtration is performed to purify Nisin Z.

Vibrio parahaemolyticus = experiment: Brine shrimp efficacy challenge trial with and without Nisin (Example 7); format: in vivo, Artemia salina; conditions: vs control group exposed to Vibrio parahaemolyticus without Nisin Z; example in present tense
Procedure: Brine shrimp (Artemia salina) are used and are prepared according to methods detailed in Examples 1-6. Additional materials, methods and experimental design may be similar to that described in Examples 1-6. A virulent strain of Vibrio parahaemolyticus is cultured to a concentration of about […], which is used for the challenge. Shrimp groups are divided: one group receives no treatment (as control) and the other group set receives brine infused with Nisin Z (concentration as determined optimal in prior experiments).

[8] = highly acidic conditions, high temperatures, proteases; cited from earlier work
brine shrimp = experiment: Pre- and post-dialysis toxicity assay and Nisin/EDTA toxicity assay (Example 9); format: in vivo, Artemia salina; conditions: after 48-hour dialysis; example in present tense
Text: Utilizing materials, methods and experimental designs as described in Examples 1-6, Nisin Z is subjected to a 48-hour dialysis treatment to reduce impurities. The toxicity assay involves exposing brine shrimp to treated and untreated samples of Nisin Z, both alone and in combination with EDTA at a concentration of […].

[9] = all dilutions 4.86 mg/mL-0.005 mg/mL
[10] = unpurified, in dH2O, 0.608 mg/mL

Compound | Diameter (zone of inhibition) (E. coli (ECX)) | Diameter (zone of inhibition) (E. coli (ECY)) | Diameter (zone of inhibition) [3] | Diameter (zone of inhibition) [4] | Diameter (zone of inhibition) [5] | concentration with no killing (Escherichia coli (EC-18)) | concentration with reduced growth (Escherichia coli (EC-18)) | killing down to a concentration (Escherichia coli (EC-18)) | concentration with no killing [2] | concentration with reduced growth [2] | killing down to a concentration [2] | efficacy in reducing mortality in shrimp [6] | mortality [6, 10] | suspension with dH2O as solvent (Suspension in dH2O) | also measured
O=C(O)CN(CCN(CC(=O)O)CC(=O)O)CC(=O)O [EDTA, ethylenediaminetetraacetic acid] |  |  |  |  |  |  |  |  |  |  |  |  |  |  | mortality at 20000 µM ([1]; 24 hours post-exposure): 100%; mortality at 20000 µM ([1]; 48 hours post-exposure): 100%; mortality ([1]; 24 hours post-exposure): zero mortality; mortality ([1]; 48 hours post-exposure): zero mortality
ImmuCell Nisin A: ImmuCell Nisin A (96% pure) suspended in citric acid buffer (ImmuCell, Portland, ME) (ITSISLCTPGCKTGALMGCNMKTATCHCSIHVSK; cysteine pairing not given here; also: lantibiotic, modifications not placed; UniProt P13068 24-57, looked up) | 10 mm | 6 mm | 13 mm | 4 mm | 4 mm |  |  |  |  |  |  |  |  |  | zones of inhibition (Escherichia coli (EC-18); [9]): clear zones of inhibition; zones of inhibition [2, 9]: clear zones of inhibition
Nisin A: Nisin A (Nissen®-A; 10% pure powder, Siveele, Breda, Netherlands) (ITSISLCTPGCKTGALMGCNMKTATCHCSIHVSK; cysteine pairing not given here; also: lantibiotic, modifications not placed; UniProt P13068 24-57, looked up) | 8 mm | 4 mm | 13 mm | 4 mm | 0 mm | 0.005 mg/mL | 0.009 mg/mL | 0.019 mg/mL | 0.005 mg/mL | 0.009 mg/mL | 0.019 mg/mL | comparable efficacy | drastic increase in mortality | did not go fully into suspension | mortality ([6]; unpurified, in dH2O, 0.152 mg/mL): showed mortality
Nisin Z: Nisin Z (26.7% pure) powder (Handry, Brussels, Belgium) (ITSISLCTPGCKTGALMGCNMKTATCNCSIHVSK; not fully specified (residues 2, 5, 33, bridges); cysteine pairing not given here; UniProt P29559 24-57, looked up) |  |  |  |  |  | 0.005 mg/mL | 0.009 mg/mL | 0.019 mg/mL | 0.005 mg/mL | 0.009 mg/mL | 0.019 mg/mL | comparable efficacy | drastic increase in mortality | went into suspension fully | zones of inhibition pre- and 48 hours post-dialysis ([2]; 2 kDa dialysis membrane purification): same sized zones; toxicity ([6]; unpurified, in dH2O, 0.152 mg/mL to 0.038 mg/mL, 48 hours): no toxicity; loss of Nisin into the dH2O [7]: no loss of Nisin; mortality rates (Vibrio parahaemolyticus): significantly lower mortality rates
aureocin A53 |  |  |  |  |  |  |  |  |  |  |  |  |  |  | stability [8]: stable under highly acidic conditions, high temperatures, and is not affected by proteases
post-dialyzed Nisin Z: Nisin Z subjected to a 48-hour dialysis treatment to reduce impurities (ITSISLCTPGCKTGALMGCNMKTATCNCSIHVSK; cysteine pairing not given here; also: lantibiotic nisin-Z, modifications not given here; UniProt P29559 24-57, looked up) |  |  |  |  |  |  |  |  |  |  |  |  |  |  | toxicity (brine shrimp): reduced toxicity
